Source: PubChem BioAssay AID2060503 (Molecular Pharmacology Branch, DTP, NCI, 2025)

Tested on: 817829-284-R-J1-PDC complex spheroids, viability
Test: Anticancer human tumor 817829-284-R-J1-PDC patient-derived colon adenocarcinoma cell line growth inhibition [GQUAD]
Conditions: for IC50: curve of first compound; for viability, T/C: stronger effect = lower value
Summary of the method: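 Tumor cells were grown as complex spheroids with HUVEC endothelial cells and mesenchymal stem cells as stroma. G-quadruplex stabilizers were combined with targeted agents over half-log dilutions from near the clinical Cmax, or from 10 microM.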
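Also: spheroids exposed to agents for 7 days before readout.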
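For viability, T/C in this document: percent viability relative to DMSO vehicle control taken as 100%.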

Structure (SMILES): C#Cc1c(F)ccc2cc(O)cc(-c3ncc4c(N5CC6CCC(C5)N6)nc(OCC56CCCN5CC(F)C6)nc4c3F)c12 (configuration not stated) + CN(C)c1ccc(Nc2c3ccc(NC(=O)CCN4CCCC4)cc3nc3cc(NC(=O)CCN4CCCC4)ccc23)cc1
- IC50 (second compound 0.0316 µM): > 10 µM
- IC50 (second compound 0.1 µM): > 10 µM
- IC50 (second compound 0.316 µM): > 10 µM
- IC50 (second compound 1 µM): > 10 µM
- IC50 (second compound 3.16 µM): > 10 µM
- IC50 (second compound 10 µM): 4.69 µM
- viability, T/C (second compound 0.0316 µM, first compound 0.0316 µM): 120%
- viability, T/C (second compound 0.0316 µM, first compound 0.1 µM): 98.2%
- viability, T/C (second compound 0.0316 µM, first compound 0.316 µM): 96%
- viability, T/C (second compound 0.0316 µM, first compound 1 µM): 98.1%
- viability, T/C (second compound 0.0316 µM, first compound 3.16 µM): 117%
- viability, T/C (second compound 0.0316 µM, first compound 10 µM): 121%
- viability, T/C (second compound 0.1 µM, first compound 0.0316 µM): 95.5%
- viability, T/C (second compound 0.1 µM, first compound 0.1 µM): 106%
- viability, T/C (second compound 0.1 µM, first compound 0.316 µM): 95.8%
- viability, T/C (second compound 0.1 µM, first compound 1 µM): 98.4%
- viability, T/C (second compound 0.1 µM, first compound 3.16 µM): 114%
- viability, T/C (second compound 0.1 µM, first compound 10 µM): 116%
- viability, T/C (second compound 0.316 µM, first compound 0.0316 µM): 111%
- viability, T/C (second compound 0.316 µM, first compound 0.1 µM): 105%
- viability, T/C (second compound 0.316 µM, first compound 0.316 µM): 97.9%
- viability, T/C (second compound 0.316 µM, first compound 1 µM): 106%
- viability, T/C (second compound 0.316 µM, first compound 3.16 µM): 101%
- viability, T/C (second compound 0.316 µM, first compound 10 µM): 118%
- viability, T/C (second compound 1 µM, first compound 0.0316 µM): 96.1%
- viability, T/C (second compound 1 µM, first compound 0.1 µM): 97%
- viability, T/C (second compound 1 µM, first compound 0.316 µM): 113%
- viability, T/C (second compound 1 µM, first compound 1 µM): 97.8%
- viability, T/C (second compound 1 µM, first compound 3.16 µM): 105%
- viability, T/C (second compound 1 µM, first compound 10 µM): 105%
- viability, T/C (second compound 3.16 µM, first compound 0.0316 µM): 107%
- viability, T/C (second compound 3.16 µM, first compound 0.1 µM): 112%
- viability, T/C (second compound 3.16 µM, first compound 0.316 µM): 102%
- viability, T/C (second compound 3.16 µM, first compound 1 µM): 110%
- viability, T/C (second compound 3.16 µM, first compound 3.16 µM): 117%
- viability, T/C (second compound 3.16 µM, first compound 10 µM): 101%
- viability, T/C (second compound 10 µM, first compound 0.0316 µM): 107%
- viability, T/C (second compound 10 µM, first compound 0.1 µM): 116%
- viability, T/C (second compound 10 µM, first compound 0.316 µM): 87.4%
- viability, T/C (second compound 10 µM, first compound 1 µM): 94%
- viability, T/C (second compound 10 µM, first compound 3.16 µM): 61.5%
- viability, T/C (second compound 10 µM, first compound 10 µM): 24.5%
